Common to all, as to assay: Post-emergence crop and weed test (Example 15)
Type in all cases: in vivo

For assay [1], the system named is ABUTH Abutilon theophrasti. Particulars: 360 h, 125 g/ha, after 15 days, read-out: Percentage damage ABUTH. The method, then:
(§1) Seeds of crop and representative weed species were sown in standard soil in pots. After cultivation for 14 days under controlled conditions in a glasshouse (at 22/16° C., day/night; 16 hours light; 65% humidity), the plants were sprayed. The spray solution was prepared by dissolving the technical active ingredient in acetone containing 10.56 wt % Emulsogen EL, 42.22 wt % N-methylpyrrolidone and 2.22 wt % DPG-monoethyl ether to give a 5% stock solution. This was then diluted with water containing 0.2% (v/v) of the adjuvant X-77 to give the desired treatment concentration.
(§2) The test plants were then grown on under controlled conditions in a glasshouse (at 22/16° C., day/night; 16 hours light; 65% humidity) and watered twice daily. After 15 days the test was evaluated (100 =total damage to plant; 0 =no damage to plant).

The next assay has as its system SIDSP Sida spinosa. To be noted: 360 h, 125 g/ha, after 15 days, read-out: Percentage damage SIDSP. Here is the method:
as §1, §2

For the next assay, the system named is CHEAL Chenopodium album. Particulars: 360 h, 125 g/ha, after 15 days, read-out: Percentage damage CHEAL. Here is the method:
as §1, §2

The subject of the next assay is GALAP Galium aparine. Particulars: 360 h, 125 g/ha, after 15 days, read-out: Percentage damage GALAP. The method, then:
as §1, §2

In assay [2] the test system is POLCO Polygonum convolvulus. Particulars: Fallopia convolvulus, 360 h, 125 g/ha, after 15 days, read-out: Percentage damage POLCO. Here is the method: as §1, §2
The subject of another assay is VERPE Veronica persica. Particulars: 360 h, 125 g/ha, after 15 days, read-out: Percentage damage VERPE. Here is the method:
as §1, §2

A further assay deals with IPOHE Ipomoea hederacea. Particulars: 360 h, 125 g/ha, after 15 days, read-out: Percentage damage IPOHE. Here is the method:
as §1, §2

Assay [3] concerns EPHHL Euphorbia heterophylla. Particulars: 360 h, 125 g/ha, after 15 days, read-out: Percentage damage EPHHL. Here is the method: as §1, §2
For assay [4], the system named is AMARE Amaranthus retroflexus. To be noted: 360 h, 125 g/ha, after 15 days, read-out: Percentage damage AMARE. The method, then:
as §1, §2

Assay [5] concerns XANST Xanthium strumarium. To be noted: 360 h, 125 g/ha, after 15 days, read-out: Percentage damage XANST. Here is the method: as §1, §2
Another assay relates to SINAR Sinapis arvensis. To be noted: Mutarda arvensis, 360 h, 125 g/ha, after 15 days, read-out: Percentage damage SINAR. Here is the method: as §1, §2
The next assay concerns GLXMA Soybean. Particulars: Glycine max, 360 h, 125 g/ha, after 15 days, read-out: Percentage damage GLXMA. Here is the method:
as §1, §2

For a further assay, the system named is KCHSC Kochia scoparia. To be noted: Bassia scoparia, 360 h, 125 g/ha, after 15 days, read-out: Percentage damage KCHSC. Here is the method:
as §1, §2

With `C/C=C/c1c(N)nc(C2CC2)nc1C(=O)OC` [Ref. Ex. D, (E)-4-Amino-2-cyclopropyl-6-methoxycarbonyl-5-(prop-1-enyl)-pyrimidine, reference compound], the pest or weed control at 125 g/ha in [1] is 50%; with SIDSP Sida spinosa it was 60%; with CHEAL Chenopodium album, 60%; in the assay with GALAP Galium aparine, 80%; in [2] it was 20%; in the assay on VERPE Veronica persica it was 10%. In addition, the pest or weed control at 125 g/ha with IPOHE Ipomoea hederacea was 70%; in [3], 80%; in assay [4], 60%; in [5], 60%; in the assay with SINAR Sinapis arvensis, 80%; in the assay with KCHSC Kochia scoparia, 10%. In addition, the plant injury at 125 g/ha in the assay with GLXMA Soybean came to 80%.
Regarding `C=Cc1c(NCc2ccco2)nc(C2CC2)nc1C(=O)OC` [Ref. Ex. F, 2-Cyclopropyl-5-ethenyl-4-(furan-2-ylmethylamino)-6-methoxycarbonyl-pyrimidine, reference compound], the pest or weed control at 125 g/ha in assay [1] turned out to be 60%; with SIDSP Sida spinosa it was 60%; in the assay with CHEAL Chenopodium album, 80%; with GALAP Galium aparine it was 80%; in [2], 60%; in the assay on VERPE Veronica persica, 0%. Moreover, the pest or weed control at 125 g/ha in the assay with IPOHE Ipomoea hederacea was found to be 70%; in assay [3] it was 80%; in [4], 40%; in [5], 60%; in the assay with SINAR Sinapis arvensis it was 80%; with KCHSC Kochia scoparia, 30%. Besides, in the assay on GLXMA Soybean, the plant injury at 125 g/ha was found to be 80%.

Values taken from patent publication US20120115724A1, “METHOD OF CONTROLLING UNDESIRED VEGETATION” (SYNGENTA CROP PROTECTION LLC, priority 2009, published 2012).
